# According to patent US8871681B2, “Herbicidal compositions comprising 4-amino-3-chloro-5-fluoro-6-(4-chloro-2-fluoro-3-methoxyphenyl) pyridine-2-carboxylic acid or a derivative thereof and certain sulfonylureas” (Dow AgroSciences LLC, priority 2012, dated 2014):
# Tests used:
# [1] = tested on: VIOTR (Viola tricolor, wild pansy); experiment: Post-emergence foliar-applied weed control in cereal crops, greenhouse (Example III); assay type: in vivo, Viola tricolor (L.)
# Experimental: (§1) Seeds of the desired test plant species were planted in Sun Gro MetroMix® 306 planting mixture, which typically has a pH of 6.0 to 6.8 and an organic matter content of about 30 percent, in plastic pots with a surface area of 103.2 square centimeters (cm^2). When required to ensure good germination and healthy plants, a fungicide treatment and/or other chemical or physical treatment was applied. The plants were grown for 7-36 days in a greenhouse with an approximate 14 hour photoperiod which was maintained at about 18° C. during the day and 17° C. during the night. Nutrients and water were added on a regular basis and supplemental lighting was provided with overhead metal halide 1000-Watt lamps as necessary. The plants were employed for testing when they reached the second or third true leaf stage.
# (§2) Treatments consisted of the benzyl ester of 4-amino-3-chloro-5-fluoro-6-(4-chloro-2-fluoro-3-methoxy-phenyl)pyridine-2-carboxylic acid (Compound A), formulated as an SC (suspension concentrate), and a second cereal herbicide alone and in combination.
# (§3) Measured aliquot of benzyl ester of 4-amino-3-chloro-5-fluoro-6-(4-chloro-2-fluoro-3-methoxy-phenyl)pyridine-2-carboxylic acid (Compound A) was placed in 25 milliliter (mL) glass vials and diluted in a volume of 1.25% (v/v) Agri-dex crop oil concentrated to obtain stock solutions. Compound requirements are based upon a 12 mL application volume at a rate of 187 liters per hectare (L/ha). Spray solutions of the second cereal herbicide and experimental compound mixtures were prepared by adding the stock solutions to the appropriate amount of dilution solution to form 12 mL spray solution with active ingredients in two- and three-way combinations. Formulated compounds were applied to the plant material with an overhead Mandel track sprayer equipped with an 8002E nozzle calibrated to deliver 187 L/ha over an application area of 0.503 square meters (m^2) at a spray height of 18 inches (46 cm) above average plant canopy. Control plants were sprayed in the same manner with the solvent blank.
# (§4) The treated plants and control plants were placed in a greenhouse as described above and watered by sub-irrigation to prevent wash-off of the test compounds. After 20-22 days, the condition of the test plants as compared with that of the control plants was determined visually and scored on a scale of 0 to 100 percent where 0 corresponds to no injury and 100 corresponds to complete kill.
# (§5) Colby's equation was used to determine the herbicidal effects expected from the mixtures (Colby, S. R. 1967. Calculation of the synergistic and antagonistic response of herbicide combinations. Weeds 15:20-22.).
# (§6) The following equation was used to calculate the expected activity of mixtures containing two active ingredients, A and B: Expected=A+B−(A×B/100)
# [2] = tested on: CIRAR (Cirsium arvense, Canada thistle); experiment: as above; assay type: in vivo, Cirsium arvense (L.) Scop.; details: Cirsium arvense, post-emergence, foliar-applied, after 20-22 days, read-out: Weed Control CIRAR Obs
# Experimental: as §1, §2, §3, §4, §5, §6
# [3] = tested on: IPOHE (Ipomoea hederacea, ivyleaf morningglory); experiment: Postemergence foliar-applied weed control, direct seeded rice, greenhouse (Example I); assay type: in vivo, Ipomoea hederacea Jacq.
# Text: (§7) Seeds or nutlets of the desired test plant species were planted in a soil matrix prepared by mixing a loam or sandy loam soil (e.g., 28.6 percent silt, 18.8 percent clay, and 52.6 percent sand, with a pH of about 5.8 and an organic matter content of about 1.8 percent) and calcareous grit in an 80 to 20 ratio. The soil matrix was contained in plastic pots with a volume of 1 quart and a surface area of 83.6 square centimeters (cm^2). When required to ensure good germination and healthy plants, a fungicide treatment and/or other chemical or physical treatment was applied. The plants were grown for 8-22 days in a greenhouse with an approximate 14 h photoperiod which was maintained at about 29° C. during the day and 26° C. during the night. Nutrients (Peters Excel® 15-5-15 5-Ca 2-Mg and iron chelate) were applied in the irrigation solution as needed and water was added on a regular basis. Supplemental lighting was provided with overhead metal halide 1000-Watt lamps as necessary. The plants were employed for testing when they reached the first through fourth true leaf stage.
# (§8) Treatments consisted of the acid or esters of 4-amino-3-chloro-5-fluoro-6-(4-chloro-2-fluoro-3-methoxy-phenyl)pyridine-2-carboxylic acid (Compound A), each formulated as an SC, and various herbicidal components alone and in combination. Forms of compound A were applied on an acid equivalent basis.
# (§9) Other herbicidal components were applied on an active ingredient basis and included acetolactate synthase (ALS)-inhibiting herbicides (sulfonylurea chemical class) azimsulfuron formulated as Gulliver®, bensulfuron-methyl formulated as Londax® 60DF, cyclosulfamuron (technical material), ethoxysulfuron formulated as Sunrice® 15 WDG, flazasulfuron formulated as Katana®, flucetosulfuron formulated as Sukedachi® 1KG G, foramsulfuron formulated as Option®, imazosulfuron formulated as Brazzos® WG, iodosulfuron-methyl-sodium formulated as Hussar®, metsulfuron-methyl formulated as Lorate®, nicosulfuron formulated as Accent®, orthosulfamuron formulated as Strada® WG, primisulfuron-methyl (technical material), propyrisulfuron formulated as Zeta One®, rimsulfuron formulated as Matrix® WG, sulfometuron-methyl formulated as Oust®, and trifloxysulfuron-sodium formulated as Monument® 75WG.
# (§10) Treatment requirements were calculated based upon the rates being tested, the concentration of active ingredient or acid equivalent in the formulation, and a 12 mL application volume at a rate of 187 L/ha.
# (§11) For treatments comprised of formulated compounds, measured amounts of compounds were placed individually in 25 mL glass vials and diluted in a volume of 1.25% (v/v) Agri-Dex® crop oil concentrated to obtain 12× stock solutions. […] Application solutions were prepared by adding an appropriate amount of each stock solution (e.g., 1 mL) and diluted to the appropriate final concentrations with the addition of 10 mL of an aqueous mixture of 1.25% (v/v) crop oil concentrate so that the final spray solutions contained 1.25+/−0.05% (v/v) Agrcrop oil concentrate.
# (§12) For treatments comprised of formulated and technical compounds, weighed amounts of the technical materials were placed individually in 25 mL glass vials and dissolved in a volume of 97:3 v/v acetone/DMSO to obtain 12× stock solutions, and measured amounts of the formulated compounds were placed individually in 25 mL glass vials and diluted in a volume of 1.25% (v/v) crop oil concentrate to obtain 12× stock solutions. […] Application solutions were prepared by adding an appropriate amount of each stock solution (e.g., 1 mL) and diluted to the appropriate final concentrations with the addition of an appropriate amount of an aqueous mixture of 1.5% (v/v) crop oil concentrate so that the final spray solutions contained 1.25% (v/v) crop oil concentrate. […]
# [4] = tested on: MATCH (Chamomilla chamomilla, scented mayweed); experiment: Post-emergence foliar-applied weed control in cereal crops, greenhouse (Example III); assay type: in vivo, Chamomilla chamomilla (L.) Rydb.
# Experimental: as §1, §2, §3, §4, §5, §6
# [5] = tested on: DIGSA (Digitaria sanguinalis, large crabgrass); experiment: Postemergence foliar-applied weed control, direct seeded rice, greenhouse (Example I); assay type: in vivo, Digitaria sanguinalis (L.) Scop.; details: 20 DAA; 8.75 gai/ha
# Method in brief: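 Greenhouse-grown plants in loam/sandy loam–grit soil (14 h photoperiod, ~29/26 °C) were sprayed postemergence at the first to fourth true leaf stage. Compound A (acid equivalent basis) and ALS-inhibiting sulfonylureas (active ingredient basis) were applied alone and in combination in 1.25% (v/v) crop oil concentrate at 187 L/ha by track sprayer; controls received solvent blank.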
# [6] = tested on: CYPES (Cyperus esculentus, yellow nutsedge); experiment: as above; assay type: in vivo, Cyperus esculentus L.; details: 20 DAA
# Text: as §7, §8, §9, §10, §11, §12
# [7] = tested on: LEFCH (Leptochloa chinensis, Chinese sprangletop); experiment: In-water applied weed control, transplanted paddy rice, greenhouse (Example II); assay type: in vivo, Leptochloa chinensis (L.) Nees
# Experimental: (§13) Weed seeds or nutlets of the desired test plant species were planted in puddled soil (mud) prepared by mixing a shredded, non-sterilized mineral soil (50.5 percent silt, 25.5 percent clay, and 24 percent sand, with a pH of about 7.6 and an organic matter content of about 2.9 percent) and water at a 1:1 volumetric ratio. The prepared mud was dispensed in 365 mL aliquots into 16-ounce (oz.) non-perforated plastic pots with a surface area of 86.59 square centimeters (cm^2) leaving a headspace of 3 centimeters (cm) in each pot. Rice seeds were planted in Sun Gro MetroMix® 306 planting mixture, which typically has a pH of 6.0 to 6.8 and an organic matter content of about 30 percent, in plastic plug trays. Seedlings at the second or third leaf stage of growth were transplanted into 860 mL of mud contained in 32-oz. non-perforated plastic pots with a surface area of 86.59 cm^2 4 days prior to herbicide application. The paddy was created by filling the headspace of the pots with 2.5 to 3 cm of water. When required to ensure good germination and healthy plants, a fungicide treatment and/or other chemical or physical treatment was applied. The plants were grown for 4-22 days in a greenhouse with an approximate 14 h photoperiod which was maintained at about 29′C during the day and 26° C. during the night. Nutrients were added as Osmocote® (19:6:12, N:P:K+minor nutrients) at 2 g per 16-oz. pot and 4 g per 32-oz. pot. Water was added on a regular basis to maintain the paddy flood, and supplemental lighting was provided with overhead metal halide 1000-Watt lamps as necessary. The plants were employed for testing when they reached the first through fourth true leaf stage.
# (§14) Treatments consisted of the acid or esters of 4-amino-3-chloro-5-fluoro-6-(4-chloro-2-fluoro-3-methoxy-phenyl)pyridine-2-carboxylic acid (compound A) each formulated as an SC and various herbicidal components alone and in combination. Forms of compound A were applied on an acid equivalent basis.
# (§15) Other herbicidal components were applied on an active ingredient basis and included acetolactate synthase (ALS)-inhibiting herbicides (sulfonylurea chemical class), azimsulfuron formulated as Gulliver®, bensulfuron-methyl formulated as Londax® 60DF, cyclosulfamuron (technical grade materail), ethoxysulfuron formulated as Sunrice® 15 WDG, flucetosulfuron formulated as Sukedachi® 1KG G, imazosulfuron formulated as Brazzos®, metsulfuron-methyl formulated as Lorate®, nicosulfuron formulated as Accent®, orthosulfamuron formulated as Strada® WG, propyrisulfuron formulated as Zeta One®, and rimsulfuron formulated as Matrix® WG.
# (§16) Treatment requirements for each compound or herbicidal component were calculated based upon the rates being tested, the concentration of active ingredient or acid equivalent in the formulation, an application volume of 2 mL per component per pot, and an application area of 86.59 cm^2 per pot.
# (§17) For formulated compounds, a measured amount was placed in an individual 100 or 200 mL glass vial and was dissolved in a volume of 1.25% (v/v) Agri-Dex® crop oil concentrate to obtain application solutions.
# (§18) For technical grade compounds, a weighed amount was placed in an individual 100 to 200 mL glass vial and was dissolved in a volume of acetone to obtain concentrated stock solutions. […] The concentrated stock solutions obtained were diluted with an equivalent volume of an aqueous mixture containing 2.5% (v/v) crop oil concentrate so that the final application solutions contained 1.25% (v/v) crop oil concentrate.
# (§19) Applications were made by injecting with a pipetter appropriate amounts of the application solutions, individually and sequentially, into the aqueous layer of the paddy. Control plants were treated in the same manner with the solvent blank. Applications were made so that all treated plant material received the same concentrations of acetone and crop oil concentrate. […]
# [8] = tested on: CYPRO (Cyperus rotundus, purple nutsedge); experiment: as above; assay type: in vivo, Cyperus rotundus L.
# Experimental: as §13, §14, §15, §16, §17, §18, §19
# [9] = tested on: ECHCG (Echinochloa crus-galli, barnyardgrass); experiment: as above; assay type: in vivo, Echinochloa crus-galli (L.) Beauv.
# Experimental: as §13, §14, §15, §16, §17
# For technical grade compounds, a weighed amount was placed in an individual 100 to 200 mL glass vial and was dissolved in a volume of acetone to obtain concentrated stock solutions. […]
# [10] = tested on: LAMPU (Lamium purpureum, purple deadnettle); experiment: Post-emergence foliar-applied weed control in cereal crops, greenhouse (Example III); assay type: in vivo, Lamium purpureum (L.); details: Table 57, after 20-22 days, 8.75 gai/ha Sulfosulfuron alone
# Experimental: as §1, §2, §3, §4, §5, §6
# [11] = tested on: VERPE (Veronica persica, bird's-eye speedwell); experiment: as above; assay type: in vivo, Veronica persica Poir.; details: Table 57, after 20-22 days, 8.75 gai/ha Sulfosulfuron alone
# Experimental: as §1, §2, §3, §4, §5, §6
# [12] = Table 54, after 20-22 days, 2.5 gai/ha alone
smiles,measurement,setting,value
COc1nc(C)nc(NC(=O)NS(=O)(=O)c2ccccc2Cl)n1 [Chlorsulfuron],Weed Control VIOTR Obs,"[1]; Table 52, after 20-22 days, 2.2 gai/ha alone",70%
same,pest or weed control at 2.2 g/ha,"[2]; Table 52, 2.2 gai/ha alone",78%
"COC(=O)c1ccc(I)cc1S(=O)(=O)[N-]C(=O)Nc1nc(C)nc(OC)n1.[Na+] [Iodosulfuron-methyl sodium, methyl 4-iodo-2-[[[[(4-methoxy-6-methyl-1,3,5-triazin-2-yl)amino]carbonyl]amino]sulfonyl]benzoate, sodium salt, reference compound]",Visual Weed Control (%) Obs,"[3]; 21 DAA, 2.5 gai/ha",90%
same,Visual Weed Control (%) Obs,"[3]; 21 DAA, 5 gai/ha",95%
same,Weed Control VIOTR Obs,[1]; [12],82%
same,pest or weed control at 2.5 g/ha,"[2]; Table 54, 2.5 gai/ha alone",60%
same,Weed Control MATCH Obs,[4]; [12],94%
"CCS(=O)(=O)c1cccnc1S(=O)(=O)NC(=O)Nc1nc(OC)cc(OC)n1 [Rimsulfuron, N-[[(4,6-dimethoxy-2-pyrimidinyl)amino]carbonyl]-3-(ethylsulfonyl)-2-pyridinesulfonamide, reference compound]",Visual Weed Control (%) Obs,"[3]; 20 DAA, 4.38 gai/ha",60%
same,Visual Weed Control (%) Obs,"[3]; 20 DAA, 8.75 gai/ha",75%
same,Visual Weed Control (%) Obs,[5],70%
same,Visual Weed Control (%) Obs,[6]; 2.19 gai/ha,0%
same,Visual Weed Control (%) Obs,[6]; 4.38 gai/ha,0%
same,Visual Weed Control (%) Obs,[6]; 8.75 gai/ha,60%
same,Visual Weed Control (%) - 20 DAA LEFCH Obs,"[7]; Table 49, 4.38 gai/ha alone",0%
same,Visual Weed Control (%) - 20 DAA LEFCH Obs,"[7]; Table 50, 4.38 gai/ha alone",0%
same,Visual Weed Control (%) - 20 DAA LEFCH Obs,"[7]; Table 50, 8.75 gai/ha alone",30%
same,Visual Weed Control (%) - 20 DAA CYPRO Obs,"[8]; Table 49, 4.38 gai/ha alone",0%
same,Visual Weed Control (%) - 20 DAA CYPRO Obs,"[8]; Table 50, 4.38 gai/ha alone",0%
same,Visual Weed Control (%) - 20 DAA ECHCG Obs,"[9]; Table 50, 4.38 gai/ha alone",0%
same,Visual Weed Control (%) - 20 DAA ECHCG Obs,"[9]; Table 50, 8.75 gai/ha alone",0%
CCS(=O)(=O)c1nc2ccccn2c1S(=O)(=O)NC(=O)Nc1nc(OC)cc(OC)n1 [Sulfosulfuron],Weed Control LAMPU Obs,[10],5%
same,Weed Control VERPE Obs,[11],35%
same,pest or weed control at 8.75 g/ha,"[2]; Table 57, 8.75 gai/ha Sulfosulfuron alone",70%
same,Weed Control MATCH Obs,"[4]; Table 57, after 20-22 days, 8.75 gai/ha Sulfosulfuron alone",95%
